Results on 36 compounds are retold here after patent US8785439B2, “2,5,7-substituted oxazolopyrimidine derivatives” (Sanofi, priority 2010, dated 2014).

The target of this assay is T1, human Edg-1 receptor (Homo sapiens, UniProt P21453).
T1 construct: FLAG (N); expressed in transfected cells; membrane preparation
Put plainly: GTP-γ-S assay using human Edg-1 receptors (SPA, CHO Flp-In cell membrane preparation). It counts as biochemical. The settings on record: test compound at 10 μM, high control 10 μM S1P regarded as 100% activation, background-corrected, triplicate; for activation at 10 µM: read-out: % Activation (Edg-1 receptor activation in percent of the activation by 10 μM S1P). In outline: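 Membranes from CHO Flp-In cells stably overexpressing N-terminally FLAG-tagged human Edg-1 were used in a scintillation-proximity GTP-γ-S binding assay to measure receptor activation by compounds.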

T1 sequence (P21453 whole entry): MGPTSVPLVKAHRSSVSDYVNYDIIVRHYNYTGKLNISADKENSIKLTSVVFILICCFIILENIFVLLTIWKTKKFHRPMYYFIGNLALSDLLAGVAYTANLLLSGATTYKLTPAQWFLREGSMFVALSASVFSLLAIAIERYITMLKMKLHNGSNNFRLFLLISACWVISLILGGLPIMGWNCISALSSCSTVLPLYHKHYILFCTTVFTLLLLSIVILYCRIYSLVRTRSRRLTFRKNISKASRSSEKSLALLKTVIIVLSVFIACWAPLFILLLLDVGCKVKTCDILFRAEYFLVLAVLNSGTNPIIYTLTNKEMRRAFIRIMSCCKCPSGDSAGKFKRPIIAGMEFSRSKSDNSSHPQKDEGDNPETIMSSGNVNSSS

In the case of `CCCOc1nc(Oc2ccc(F)cc2OC)nc2oc(-c3cccc(C)c3)nc12` [Example 99, 5-(4-fluoro-2-methoxy-phenoxy)-7-propoxy-2-(3-methyl-phenyl)-oxazolo[5,4-d]pyrimidine], the activation at 10 µM is 91%.
On to `CCCOc1nc(Oc2c(C)cccc2C)nc2oc(-c3cccc(C)c3)nc12` [Example 132, 5-(2,6-dimethyl-phenoxy)-7-propoxy-2-(3-methyl-phenyl)-oxazolo[5,4-d]pyrimidine], for which the activation at 10 µM is 129%.
In the case of `CCCOc1nc(Oc2ccccc2C#N)nc2oc(-c3cccc(C)c3)nc12` [Example 128, 2-(7-propoxy-2-(3-methyl-phenyl)-oxazolo[5,4-d]pyrimidin-5-yloxy)-benzonitrile], the activation at 10 µM was found to be 105%.
Consider `CCOc1nc(Oc2cccc(S(=O)(=O)N(C)C)c2)nc2oc(-c3cccc(C)c3)nc12` [Example 17, 3-(7-ethoxy-2-(3-methyl-phenyl)-oxazolo[5,4-d]pyrimidin-5-yloxy)-N,N-dimethyl-benzenesulfonamide], for which the activation at 10 µM worked out at 55%.
`CCCOc1nc(Sc2nc(C)cs2)nc2oc(-c3cccc(C)c3)nc12` [Example 55, 5-(4-methyl-thiazol-2-ylsulfanyl)-7-propoxy-2-(3-methyl-phenyl)-oxazolo[5,4-d]pyrimidine]: the activation at 10 µM came to 81%.
On the same count and under the same terms, next, `CCCOc1nc(Oc2cc(Cl)ccc2C)nc2oc(-c3cc(F)ccc3Cl)nc12` [Example 66, 2-(2-chloro-5-fluoro-phenyl)-5-(5-chloro-2-methyl-phenoxy)-7-propoxy-oxazolo[5,4-d]pyrimidine]: 106%; `CCCOc1nc(NC2CCC(F)(F)CC2)nc2oc(-c3cc(F)ccc3Cl)nc12` [Example 64, [2-(2-chloro-5-fluoro-phenyl)-7-propoxy-oxazolo[5,4-d]pyrimidin-5-yl]-(4,4-difluoro-cyclohexyl)-amine]: 109%; `CCCOc1nc(NN2CCOCC2)nc2oc(-c3cccc(C)c3)nc12` [Example 65, morpholin-4-yl-(7-propoxy-2-(3-methyl-phenyl)-oxazolo[5,4-d]pyrimidin-5-yl)-amine]: 105%.
On the same count and under the same terms, next, `CCCOc1nc(Oc2ccccc2CCC)nc2oc(-c3cccc(C)c3)nc12` [Example 126, 7-propoxy-5-(2-propyl-phenoxy)-2-(3-methyl-phenyl)-oxazolo[5,4-d]pyrimidine]: 121%.
Turning to `CCCOc1nc(Oc2ccc(SC(F)(F)F)cc2)nc2oc(-c3cccc(C)c3)nc12` [Example 112, 7-propoxy-2-(3-methyl-phenyl)-5-(4-trifluoromethylsulfanyl-phenoxy)-oxazolo[5,4-d]pyrimidine], the activation at 10 µM was 46%.
With `Fc1ccccc1Oc1nc(OCC2CC2)c2nc(-c3ccc(Cl)c(Cl)c3)oc2n1` [Example 158, 7-cyclopropylmethoxy-2-(3,4-dichloro-phenyl)-5-(2-fluoro-phenoxy)-oxazolo[5,4-d]pyrimidine], the activation at 10 µM is 69%.
As for `Cc1ccc(F)cc1Oc1nc(OCC2CC2)c2nc(-c3ccc(Cl)c(Cl)c3)oc2n1` [Example 159, 7-cyclopropylmethoxy-2-(3,4-dichloro-phenyl)-5-(5-fluoro-2-methyl-phenoxy)-oxazolo[5,4-d]pyrimidine], the activation at 10 µM amounted to 55%.
The same measure, in the same setting: next, `CCCOc1nc(Oc2cc(F)ccc2C)nc2oc(-c3cc(F)ccc3Cl)nc12` [Example 79, 2-(2-chloro-5-fluoro-phenyl)-5-(5-fluoro-2-methyl-phenoxy)-7-propoxy-oxazolo[5,4-d]pyrimidine]: 64%; `CCCOc1nc(Oc2cc(F)cc(F)c2Cl)nc2oc(-c3cccc(C)c3)nc12` [Example 100, 5-(2-chloro-3,5-difluoro-phenoxy)-7-propoxy-2-(3-methyl-phenyl)-oxazolo[5,4-d]pyrimidine]: 108%.
For `CCCOc1nc(NC2CCC(C)CC2)nc2oc(-c3cc(F)ccc3Cl)nc12` (stereo not drawn) [Example 148, [2-(2-chloro-5-fluoro-phenyl)-7-propoxy-oxazolo[5,4-d]pyrimidin-5-yl]-(4-methyl-cyclohexyl)-amine], the “% Activation (Edg-1 receptor activation in percent of the activation by 10 μM S1P)” value is 58%.
Take `CCCOc1nc(Oc2ccc(C)nn2)nc2oc(-c3cccc(C)c3)nc12` [Example 19, 5-(6-methyl-pyridazin-3-yloxy)-7-propoxy-2-(3-methyl-phenyl)-oxazolo[5,4-d]pyrimidine]: the activation at 10 µM stood at 62%.
With `CCCOc1nc(Oc2ccc(C#N)cc2OC)nc2oc(-c3cccc(C)c3)nc12` [Example 92, 3-methoxy-4-(7-propoxy-2-(3-methyl-phenyl)-oxazolo[5,4-d]pyrimidin-5-yloxy)-benzonitrile], the activation at 10 µM turned out to be 51%.
Turning to `CC1(C)OCC(COc2nc(OCC3CC3)c3nc(-c4cccc(F)c4)oc3n2)O1` (stereo not drawn) [Example 35], the “% Activation (Edg-1 receptor activation in percent of the activation by 10 μM S1P)” value is recorded as 72%.
Consider `Fc1cccc(-c2nc3c(OCC4CC4)nc(Oc4ccccc4F)nc3o2)c1` [Example 32, 7-cyclopropylmethoxy-5-(2-fluoro-phenoxy)-2-(3-fluoro-phenyl)-oxazolo[5,4-d]pyrimidine], for which the activation at 10 µM turned out to be 61%.
Turning to `CCCOc1nc(Oc2cccc(SC(F)(F)F)c2)nc2oc(-c3cc(F)ccc3Cl)nc12` [Example 68, 2-(2-chloro-5-fluoro-phenyl)-7-propoxy-5-(3-trifluoromethylsulfanyl-phenoxy)-oxazolo[5,4-d]pyrimidine], the activation at 10 µM is 41%.
Regarding `CCCOc1nc(Oc2ccc(=O)n(C)n2)nc2oc(-c3cccc(C)c3)nc12` [Example 56, 2-methyl-6-(7-propoxy-2-(3-methyl-phenyl)-oxazolo[5,4-d]pyrimidin-5-yloxy)-2H-pyridazin-3-one], the activation at 10 µM stood at 97%.
With `CCCOc1nc(OC2CCCCC2)nc2oc(-c3cc(F)ccc3Cl)nc12` [Example 80, 2-(2-chloro-5-fluoro-phenyl)-5-cyclohexyloxy-7-propoxy-oxazolo[5,4-d]pyrimidine], the activation at 10 µM stood at 46%.
Regarding `CCCOc1nc(Oc2ccc(Cl)c(F)c2)nc2oc(-c3cccc(C)c3)nc12` [Example 74, 5-(4-chloro-3-fluoro-phenoxy)-7-propoxy-2-(3-methyl-phenyl)-oxazolo[5,4-d]pyrimidine], the activation at 10 µM was determined as 69%.
For `CCCOc1nc(Oc2cccc(SC(F)(F)F)c2)nc2oc(-c3cccc(F)c3)nc12` [Example 69, 2-(3-fluoro-phenyl)-7-propoxy-5-(3-trifluoromethylsulfanyl-phenoxy)-oxazolo[5,4-d]pyrimidine], the activation at 10 µM stood at 41%.
For the compound `CCCOc1nc(SC2CCS(=O)(=O)C2)nc2oc(-c3cccc(F)c3)nc12` (stereo not drawn) [Example 14, 5-(1,1-dioxo-tetrahydro-1lambda6-thiophen-3-ylsulfanyl)-2-(3-fluoro-phenyl)-7-propoxy-oxazolo[5,4-d]pyrimidine], the activation at 10 µM stood at 72%.
Same read-out and setting: then `CCCOc1nc(Oc2cc(F)ccc2C)nc2oc(-c3cccc(C)c3)nc12` [Example 50, 5-(5-fluoro-2-methyl-phenoxy)-7-propoxy-2-(3-methyl-phenyl)-oxazolo[5,4-d]pyrimidine], with 107%; and `Clc1ccc(-c2nc3c(OCC4CC4)nc(Oc4ccccc4)nc3o2)cc1Cl` [Example 110, 7-cyclopropylmethoxy-2-(3,4-dichloro-phenyl)-5-phenoxy-oxazolo[5,4-d]pyrimidine], with 80%.
On the same count and under the same terms, then `COc1c(C)cc(-c2nc3c(OC4COC4)nc(Oc4ccccc4F)nc3o2)cc1C` [Example 8, 5-(2-Fluoro-phenoxy)-2-(4-methoxy-3,5-dimethyl-phenyl)-7-(oxetan-3-yloxy)-oxazolo[5,4-d]pyrimidine], with 124%.
Take `CCCOc1nc(NC2CCCCC2)nc2oc(-c3cc(F)ccc3Cl)nc12` [Example 149, [2-(2-chloro-5-fluoro-phenyl)-7-propoxy-oxazolo[5,4-d]pyrimidin-5-yl]-cyclohexyl-amine]: the activation at 10 µM came to 70%.
`CCCOc1nc(OCC2(C)COC2)nc2oc(-c3cc(F)ccc3Cl)nc12` [Example 152, 2-(2-chloro-5-fluoro-phenyl)-5-(3-methyl-oxetan-3-ylmethoxy)-7-propoxy-oxazolo[5,4-d]pyrimidine]: the activation at 10 µM stood at 46%.
For `CCCOc1nc(Oc2cccc(S(N)(=O)=O)c2)nc2oc(-c3cccc(C)c3)nc12` [Example 20, 3-(7-propoxy-2-(3-methyl-phenyl)-oxazolo[5,4-d]pyrimidin-5-yloxy)-benzenesulfonamide], the activation at 10 µM is 83%.
For the compound `CCCOc1nc(Oc2ccc(SC(F)(F)F)cc2)nc2oc(-c3cccc(F)c3)nc12` [Example 82, 2-(3-fluoro-phenyl)-7-propoxy-5-(4-trifluoromethylsulfanyl-phenoxy)-oxazolo[5,4-d]pyrimidine], the activation at 10 µM came out at 107%.
As to `CCCOc1nc(OC2COC2)nc2oc(-c3cccc(C)c3)nc12` [Example 38, 5-(oxetan-3-yloxy)-7-propoxy-2-(3-methyl-phenyl)-oxazolo[5,4-d]pyrimidine], the activation at 10 µM came out at 70%.
Regarding `CCCOc1nc(Oc2cc(C)nn2C)nc2oc(-c3cccc(C)c3)nc12` [Example 25, 5-(2,5-dimethyl-2H-pyrazol-3-yloxy)-7-propoxy-2-(3-methyl-phenyl)-oxazolo[5,4-d]pyrimidine], the activation at 10 µM was 110%.
In the case of `CCCOc1nc(Oc2cc(C)ccc2Cl)nc2oc(-c3cccc(C)c3)nc12` [Example 137, 5-(2-chloro-5-methyl-phenoxy)-7-propoxy-2-(3-methyl-phenyl)-oxazolo[5,4-d]pyrimidine], the activation at 10 µM is 89%.
Still for that read-out and setting: next, `CCCOc1nc(Oc2ccc(C)c(F)c2)nc2oc(-c3cccc(C)c3)nc12` [Example 54, 5-(3-fluoro-4-methyl-phenoxy)-7-propoxy-2-(3-methyl-phenyl)-oxazolo[5,4-d]pyrimidine]: 105%.
